# Source: patent US6943174B2, “6,5-Fused bicyclic heterocycles” (Warner-Lambert Company, priority 2000, dated 2005)
# Key:
# human 15-LO = biological target: T1, human 15-LO (Homo sapiens, UniProt P16050); experiment: Human Lysate 15-LO Assay (HUM15LO); format: biochemical; details: 15-LO catalyzed oxidation of linoleic acid, 15 minutes at 4° C.
# T1 construct: made in house; host or cells: Sf9 insect cells (baculovirus, Bac-to-Bac)
# T1 sequence (P16050 1-662): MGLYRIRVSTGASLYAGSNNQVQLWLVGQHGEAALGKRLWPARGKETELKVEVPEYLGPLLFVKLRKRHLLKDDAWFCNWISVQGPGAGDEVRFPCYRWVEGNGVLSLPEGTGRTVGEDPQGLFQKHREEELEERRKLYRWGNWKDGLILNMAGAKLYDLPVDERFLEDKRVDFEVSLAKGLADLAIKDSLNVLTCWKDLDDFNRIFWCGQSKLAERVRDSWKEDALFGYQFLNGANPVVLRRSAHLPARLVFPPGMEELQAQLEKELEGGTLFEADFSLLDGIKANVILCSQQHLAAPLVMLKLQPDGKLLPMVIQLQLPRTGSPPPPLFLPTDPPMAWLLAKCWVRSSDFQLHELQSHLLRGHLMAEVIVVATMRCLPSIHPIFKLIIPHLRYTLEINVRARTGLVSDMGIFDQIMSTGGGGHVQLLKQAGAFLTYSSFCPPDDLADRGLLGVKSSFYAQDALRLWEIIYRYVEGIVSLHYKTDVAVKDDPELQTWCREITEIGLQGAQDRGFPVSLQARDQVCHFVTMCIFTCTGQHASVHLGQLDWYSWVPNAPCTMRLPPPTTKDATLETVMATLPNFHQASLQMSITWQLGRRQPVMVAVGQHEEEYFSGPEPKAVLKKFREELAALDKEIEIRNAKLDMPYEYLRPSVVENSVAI
# Method: The HUM15LO assay measures inhibition of 15-LO catalyzed oxidation of linoleic acid to the hydroperoxy fatty acid 13-(S)HPODE, a conjugated diene. In the HUM15LO assay, a test compound was incubated with 15-LO enzyme in the presence of the linoleic acid substrate. For example, a known amount of a compound of the present invention and 100 μL of human 15-LO and 174 μM of linoleic acid in PBS containing 0.2% sodium cholate were incubated for 15 minutes at 4° C. The test reaction was stopped with 100 μL of mobile phase and 10 μL of triethyl phosphite. […] 13-HPODE was quantitated by comparing peak areas of individual samples with those from a standard curve generated using authentic 13-HODE. The test reaction was compared to a control reaction, which is identical to the test reaction except a test compound is not present. Percent inhibition was calculated as […], expressed as a percent.
# Human 15-LO was generated in a recombinant 15-lipoxygenase bacculovirus expression system, using Gibco/BRL/Life Technologies' Bac-to-Bac expression reagents; T4 DNA ligase, Kanamycin, Gentamicin, tetracycline, penicillin, streptomycin, Bluo-gal, IPTC; DH10Bac competent cells, SOC, LB medium, Sf-900 II SFM media, Sf9 insect cells, Cell Fectin, and EcoRI, BamHI, and KpnI restriction enzymes.
inhibition (human 15-LO; at 10 μM) [%],IC50 (human 15-LO) [µM],melting point [°C],Structure (SMILES)
39,–,–,"COc1ccc(-c2nc3cccnc3[nH]2)cc1N [Chemical Example 1, 5-(3H-imidazo[4,5-b]pyridin-2-yl)-2-methoxy-phenylamine]"
–,10,252 to 254,"COc1ccc(-c2nc3cccnc3[nH]2)cc1NS(=O)(=O)c1cccs1 [Chemical Example 2, Thiophene-2-sulfonic acid [5-(3H-imidazo[4,5-b]pyridin-2-yl)-2-methoxy-phenyl]-amide]"
